Reference: patent publication US6486128B1, “Method of using emamectin to treat fish parasites” (Schering-Plough Veterinary Corporation, priority 1999, dated 2002)
Several values for one entry are separate records, joined by “and”; a condition that tells them apart may be missing. Equal entries are not always repeated.

Test system: sea lice, Lepeophtheirus salmonis
Experiment: Dose titration study: efficacy of emamectin benzoate in feed against induced sea lice infestations on Atlantic salmon
Type: in vivo
Details: for Percentage fish mortality: mortality attributed to sea lice damage, includes culled fish
Protocol: Three studies were carried out at the Institute of Aquaculture Marine Environmental Research Laboratory in Machrihanish, Scotland. Atlantic salmon, Salmo salar L., post-smolts were obtained from a disease free stock and acclimatised at the test facility.
Fish were held in replicate groups in plastic fiber tanks, each with a volume of 0.54 m^3. Each tank was supplied with natural sea water at ambient temperature (7-14° C.) and salinity (30-35 ppt), at flow rates of approximately 18 l. min^−1. The tanks were fitted with mesh screens over the water outlet to retain uneaten fish pellets. Fish were observed daily for behavior and adverse drug reactions. Fish mortalities and the occurrence of gross sea lice damage were also recorded.
Sea lice were collected during harvesting on commercial salmon farms on the west coast of Scotland. Egg strings collected from gravid female lice were incubated in sea water at ambient temperature and within a salinity range of 32-35 ppt. Once the hatched larvae reached the copepodite stage, 38-170 copepodites per fish were introduced into each of four replicate tanks of fish and the water supply to each tank was turned off for approximately three hours to allow attachment of copepodites to the fish. This was repeated 4-5 times at intervals of 3-5 days until chalimus stages I, II, III and IV were present. Chalimus numbers were evaluated at day −1 or day −2 pre-treatment, on sub-samples of fish (N=6-9 fish per tank). At this point, fish were infested with pre-adult and adult lice, by adding 5-10 lice per fish to each tank. Water supplies to each tank were turned off for around one hour until all the lice had attached to the fish. Pre-treatment lice numbers were based on a sub-sample of the total population and presented as the mean number of chalimus per fish. Fish were then randomly re-distributed from the four original tanks to each control or treatment tank, as described in the experimental design for each study, and no further infestations were carried out during or after treatment.
The basal ration was Fulmar™ (BOCM Pauls Ltd.) 3.5 or 5 mm salmon feed pellets. Emamectin benzoate was dissolved in propylene glycol and mixed with fish oil prior to top coating the feed pellets. Control feeds were prepared in the same way with propylene glycol and fish oil. Treatment was administered at nominal dose rates of 0, 25, 50 and 100 μg kg^−1 fish biomass per day, at a feed rate of 0.5% biomass, for a period of seven consecutive days (days 0-6). Actual daily feed consumption was measured in each tank by collecting the uneaten feed pellets approximately thirty minutes after administration and subtracting the number of pellets from the daily ration fed. The mean dose consumed was calculated for each group as follows: [formula] Mean feed consumption (%)×nominal dose rate (μg·kg^−1)=Mean dose consumed (μg·kg^−1)
Evaluation of sea lice numbers was carried out at 7, 14 and 21 days from the start of treatment. Fish were anaesthetised in 40 mg·l^−1 ethyl-P-aminobenzoate (benzocaine) and each fish examined under a low power microscope. Lice were identified as chalimus I-IV, pre-adult I or II and adult stages. Pre-adults and adult lice were additionally identified as males or females. The numbers of each developmental stage were recorded. Any lice which detached in the anaesthetic solution were included in the counts and reattached to the fish after transferring them to fresh seawater. The fish were returned to the holding tanks after sampling and the same fish were evaluated at days 7, 14 and 21.
The water temperature was 7-10° C. and salinity was 33-34 ppt. Pre-treatment, mean fish weights were 192 g (±30 g S.D). Emamectin benzoate was administered at nominal daily dose rates of 0, 25, 50 and 100 μg kg^−1 fish biomass. There were two replicate tanks per treatment with a sample size of 19 or 20 fish per tank. […]

[1] = nominal dose 25 μg·kg^−1/day (consumed 21.5) in feed Day 0-6, Day 7
[2] = nominal dose 25 μg·kg^−1/day (consumed 21.5) in feed Day 0-6, day 21
[3] = nominal dose 25 μg·kg^−1/day in feed Day 0-6, Day 14
[4] = nominal dose 25 μg·kg^−1/day in feed Day 0-6, Day 21
[5] = nominal dose 50 μg·kg^−1/day (consumed 45.0) in feed Day 0-6, Day 7
[6] = nominal dose 50 μg·kg^−1/day (consumed 45.0) in feed Day 0-6, day 21
[7] = nominal dose 50 μg·kg^−1/day in feed Day 0-6, Day 14
[8] = nominal dose 50 μg·kg^−1/day in feed Day 0-6, Day 21
[9] = nominal dose 100 μg·kg^−1/day (consumed 91.0) in feed Day 0-6, Day 7
[10] = nominal dose 100 μg·kg^−1/day (consumed 91.0) in feed Day 0-6, day 21
[11] = nominal dose 100 μg·kg^−1/day in feed Day 0-6, Day 14
[12] = nominal dose 100 μg·kg^−1/day in feed Day 0-6, Day 21

emamectin benzoate
reduction of total numbers of lice per fish compared to the control groups (all treatment groups (25, 50, 100 μg kg^−1), day 7): 35.4-37.5% | % Reduction relative to controls (Total lice) [1]: 36.2% | Mean Total lice (± S.D) [1]: 32.6 ± 10.7 | Mean chalimus (± S.D) [1]: 20.9 ± 8.6 | Mean motiles (± S.D) [1]: 11.7 ± 6.0 | % Reduction relative to controls (Total lice) (nominal dose 25 μg·kg^−1/day (consumed 21.5) in feed Day 0-6, Day 21): 89.8% | Percentage of fish with no lice present (chalimus or motiles) [2]: 13.8% | Percentage of fish with no motile lice present [2]: 55.0% | % Reduction relative to controls (Total lice) [3]: 70.8% | Mean Total lice (± S.D) [3]: 13.1 ± 6.9 | Mean chalimus (± S.D) [3]: 9.7 ± 3.9 | Mean motiles (± S.D) [3]: 3.4 ± 6.4 | Mean Total lice (± S.D) [4]: 3.5 ± 2.7 | Mean chalimus (± S.D) [4]: 2.4 ± 1.9 | Mean motiles (± S.D) [4]: 1.1 ± 2.2 | Percentage fish mortality (nominal dose 25 μg·kg^−1/day): 0% | % Reduction relative to controls (Total lice) [5]: 37.5% | Mean Total lice (± S.D) [5]: 31.9 ± 11.4 | Mean chalimus (± S.D) [5]: 24.8 ± 10.3 | Mean motiles (± S.D) [5]: 7.1 ± 4.1 | % Reduction relative to controls (Total lice) (nominal dose 50 μg·kg^−1/day (consumed 45.0) in feed Day 0-6, Day 21): 95.2% | Percentage of fish with no lice present (chalimus or motiles) [6]: 22.5% | Percentage of fish with no motile lice present [6]: 87.5% | % Reduction relative to controls (Total lice) [7]: 70.3% | Mean Total lice (± S.D) [7]: 13.4 ± 5.9 | Mean chalimus (± S.D) [7]: 12.4 ± 3.5 | Mean motiles (± S.D) [7]: 1.0 ± 1.2 | Mean Total lice (± S.D) [8]: 1.7 and 1.7 ± 1.3 | Mean chalimus (± S.D) [8]: 1.6 ± 1.5 | Mean motiles (± S.D) [8]: 0.1 ± 0.3 | Percentage fish mortality (nominal dose 50 μg·kg^−1/day): 0% | % Reduction relative to controls (Total lice) [9]: 35.4% | Mean Total lice (± S.D) [9]: 33.0 ± 10.7 | Mean chalimus (± S.D) [9]: 29.0 ± 9.8 | Mean motiles (± S.D) [9]: 4.0 ± 3.6 | % Reduction relative to controls (Total lice) (nominal dose 100 μg·kg^−1/day (consumed 91.0) in feed Day 0-6, Day 21): 95.8% | Percentage of fish with no lice present (chalimus or motiles) [10]: 28.2% | Percentage of fish with no motile lice present [10]: 87.0% | % Reduction relative to controls (Total lice) [11]: 66.4% | Mean Total lice (± S.D) [11]: 15.1 ± 5.8 | Mean chalimus (± S.D) [11]: 14.1 ± 5.5 | Mean motiles (± S.D) [11]: 1.0 ± 3.2 | Mean Total lice (± S.D) [12]: 1.5 ± 1.6 | Mean chalimus (± S.D) [12]: 1.2 ± 1.2 | Mean motiles (± S.D) [12]: 0.3 ± 1.0 | Percentage fish mortality (nominal dose 100 μg·kg^−1/day): 2.5% | mean numbers of motile lice in the treated groups (treated groups (25, 50, 100 μg kg^−1), day 21): 0.1-1.1 per fish
